Experimental data taken from US20100267561A1, “HERBICIDAL PYRIDAZINONE DERIVATIVES” (priority 2007, published 2010).

Key:
Type in all cases: in vivo
[1] = system: barnyardgrass (Echinochloa crus-galli); experiment: Test A pre-/postemergence plant response
Procedure, shortened: (§1)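 Greenhouse pot test: loam–sand soil; pre- and postemergence sprays applied same day; post plants 2–10 cm, 1–2 leaves. Readout ~10 d, visual % injury vs untreated (0 = none, 100 = complete control).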

corn (Zea mays) = experiment: Test A pre-/postemergence plant response
Procedure, shortened: as §1

[2] = system: giant foxtail (Setaria faberi); experiment: Test A pre-/postemergence plant response
Procedure, shortened: as §1

[3] = system: large crabgrass (Digitaria sanguinalis); experiment: Test A pre-/postemergence plant response
Procedure, shortened: as §1

[4] = system: morningglory (Ipomoea coccinea); experiment: Test A pre-/postemergence plant response
Procedure, shortened: as §1

[5] = system: pigweed (Amaranthus retroflexus); experiment: Test A pre-/postemergence plant response
Procedure, shortened: as §1

[6] = system: velvetleaf (Abutilon theophrasti); experiment: Test A pre-/postemergence plant response
Procedure, shortened: as §1

[7] = system: wheat (Triticum aestivum); experiment: Test A pre-/postemergence plant response
Procedure, shortened: as §1

[8] = system: green foxtail (Setaria viridis); experiment: Test B pre-/postemergence plant response; settings: Preemergence
Procedure, shortened: (§2)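 Visual scoring from 0 (no effect) to 100 (complete control) against untreated controls was done 13 to 15 days after greenhouse treatment. Chemicals were formulated in a surfactant-containing non-phytotoxic solvent and applied to soil preemergence or to 1- to 4-leaf (2-18 cm) plants postemergence.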

[9] = system: johnsongrass (Sorghum halepense); experiment: Test B pre-/postemergence plant response; settings: Preemergence
Procedure, shortened: as §2

[10] = system: wheat (Triticum aestivum); experiment: Test B pre-/postemergence plant response; settings: Preemergence
Procedure, shortened: as §2

[11] = Postemergence, 125 g ai/ha, 0 to 100 scale, 0 no effect, 100 complete control
[12] = Postemergence, 500 g ai/ha, 0 to 100 scale, 0 no effect, 100 complete control
[13] = Preemergence, 125 g ai/ha, 0 to 100 scale (0 no effect, 100 complete control)
[14] = Preemergence, 500 g ai/ha, 0 to 100 scale (0 no effect, 100 complete control)
[15] = 16 g ai/ha, scale 0 to 100 (0 no effect, 100 complete control)
[16] = 31 g ai/ha, 0 to 100 scale, 0 no effect, 100 complete control

Question: Cn1ncc(O)c(-c2nn(-c3ccc(Cl)cc3)cc2Br)c1=O [Compound 31] was tested. Which “Plant response rating, Barnyardgrass” value [1, 11] did it give?
Answer: 60

Question: And the “Plant response rating, Barnyardgrass” value [1, 12]?
Answer: 90

Question: And the “Plant response rating, Barnyardgrass” value [1, 13]?
Answer: 100

Question: And the “Plant response rating, Barnyardgrass” value [1, 14]?
Answer: 100

Question: And the “Plant response rating, Corn” value (corn (Zea mays); [11])?
Answer: 10

Question: What about the “Plant response rating, Corn” value (corn (Zea mays); [12]) of the same compound?
Answer: 70

Question: What about the “Plant response rating, Corn” value (corn (Zea mays); [13]) of the same compound?
Answer: 50

Question: What about the “Plant response rating, Corn” value (corn (Zea mays); [14]) of the same compound?
Answer: 70

Question: And the “Plant response rating, Foxtail, Giant” value [2, 11]?
Answer: 90

Question: What about the “Plant response rating, Foxtail, Giant” value [2, 12] of the same compound?
Answer: 90

Question: And the “Plant response rating, Foxtail, Giant” value [2, 13]?
Answer: 100

Question: What about the “Plant response rating, Foxtail, Giant” value [2, 14] of the same compound?
Answer: 100

Question: And the “Plant response rating, Crabgrass, Large” value [3, 11]?
Answer: 60

Question: And the “Plant response rating, Crabgrass, Large” value [3, 12]?
Answer: 90

Question: And the “Plant response rating, Crabgrass, Large” value [3, 13]?
Answer: 100

Question: What about the “Plant response rating, Crabgrass, Large” value [3, 14] of the same compound?
Answer: 100

Question: What about the “Plant response rating, Morningglory” value [4, 11] of the same compound?
Answer: 0

Question: And the “Plant response rating, Morningglory” value [4, 12]?
Answer: 0

Question: And the “Plant response rating, Morningglory” value [4, 13]?
Answer: 0

Question: And the “Plant response rating, Morningglory” value [4, 14]?
Answer: 0

Question: And the “Plant response rating, Pigweed” value [5, 11]?
Answer: 0

Question: And the “Plant response rating, Pigweed” value [5, 12]?
Answer: 0

Question: And the “Plant response rating, Pigweed” value [5, 13]?
Answer: 0

Question: And the “Plant response rating, Pigweed” value [5, 14]?
Answer: 20

Question: And the “Plant response rating, Velvetleaf” value [6, 11]?
Answer: 0

Question: What about the “Plant response rating, Velvetleaf” value [6, 12] of the same compound?
Answer: 0

Question: What about the “Plant response rating, Velvetleaf” value [6, 13] of the same compound?
Answer: 0

Question: And the “Plant response rating, Velvetleaf” value [6, 14]?
Answer: 0

Question: What about the “Plant response rating, Wheat” value [7, 11] of the same compound?
Answer: 40

Question: What about the “Plant response rating, Wheat” value [7, 12] of the same compound?
Answer: 60

Question: And the “Plant response rating, Wheat” value [7, 13]?
Answer: 60

Question: What about the “Plant response rating, Wheat” value [7, 14] of the same compound?
Answer: 90

Question: And the “Plant response rating, Foxtail, Green” value [8, 15]?
Answer: 98

Question: What about the “Plant response rating, Foxtail, Green” value [8, 16] of the same compound?
Answer: 100

Question: And the “Plant response rating, Foxtail, Green” value ([8]; 62 g ai/ha, scale 0 to 100)?
Answer: 100

Question: What about the “Foxtail, Green plant response rating” value ([8]; 8 g ai/ha, scale 0 to 100) of the same compound?
Answer: 65

Question: What about the “Plant response rating, Johnsongrass” value [9, 15] of the same compound?
Answer: 60

Question: And the “Plant response rating, Johnsongrass” value [9, 16]?
Answer: 75

Question: What about the “Plant response rating, Johnsongrass” value ([9]; 62 g ai/ha, scale 0 to 100) of the same compound?
Answer: 75

Question: What about the “Johnsongrass plant response rating” value ([9]; 8 g ai/ha, scale 0 to 100) of the same compound?
Answer: 55

Question: What about the “Plant response rating, Wheat” value [10, 15] of the same compound?
Answer: 0

Question: What about the “Plant response rating, Wheat” value [10, 16] of the same compound?
Answer: 0

Question: What about the “Plant response rating, Wheat” value ([10]; 62 g ai/ha, scale 0 to 100) of the same compound?
Answer: 80

Question: What about the “Wheat plant response rating” value ([10]; 8 g ai/ha, scale 0 to 100) of the same compound?
Answer: 0
